Where a name gives a salt, the structure may show the parent alone.
Assays:
[1] = test system: RCC4 cells; assay: Immunoblotting of HIF1α hydroxylation in VHL-defective RCC4 cells; format: cell-based, human; conditions: immunoblot
Method: (§1) Human cell lines (RCC4, HeLa, Hep3B, MCF-7 and U2OS) were cultured in DMEM (D6546-500ML; Sigma Aldrich) each supplemented with 10% fetal bovine serum (F7524-500ML; Sigma Aldrich), 2 mM L-glutamine (G7513- 100ML; Sigma Aldrich), 50 units/ml of penicillin, and 50 μg/ml of streptomycin (P0781-100ML; Sigma Aldrich). The RCC4 cell line was a gift from C.H.C.M. Buys (University of Groningen, [2]), the HeLa and Hep3B cell lines were from the European Collection of Cell Cultures (ECACC), the MCF-7 cell line was from the American Type Culture Collection (ATCC) and the U2OS cell line was a gift from S.Galey (ICRF Clare Hall Laboratories, United Kingdom). Cells were treated either with DMSO (control) or compounds (dissolved in DMSO) and added directly into the cell culture medium to the desired final concentration for 4–5 h as previously described.
(§2) Cells were extracted using urea/SDS buffer (6.7 M urea, 10 mM Tris-HCl pH 6.8, 10% glycerol and 1% SDS) and processed for immunoblotting as described. The following primary antibodies were used for immunoblotting: mouse monoclonal HIF1α antibody clone 54 (610958, BD Transduction Laboratories, 1:1000), rabbit polyclonal HIF1α hydroxy-Pro402 antibody (07–1585, Millipore, 1:1000), rabbit monoclonal HIF1α hydroxy-Pro564 antibody clone D43B5 (3434S, Cell Signaling, 1:500), mouse monoclonal HIF1α hydroxy-Asn803 antibody (a kind gift from Dr M. K. Lee, Republic of Korea, 1:4000), mouse monoclonal PHD2 antibody clone 76a (1:10), mouse monoclonal FIH antibody clone 162c (1:200) and β-actin/HRP (clone AC15, Abcam). HRP-conjugated swine polyclonal anti-rabbit IgG (P0399, Dako), and goat polyclonal anti-mouse IgG (P0447, Dako) were used as secondary antibodies.
(§3) In this cell line, the extent of the differential HIF1α prolyl hydroxylation at the N-terminal and C-terminal oxygen-dependent degradation domains (HyPro402 and HyPro564, respectively), as well as HIF1α asparaginyl hydroxylation at the C-terminal transactivation domain (HyAsn803) can be interrogated by immunoblotting using hydroxylation specific antibodies.

[2] = target: JARID1C (KDM5C) (Homo sapiens, UniProt P41229); assay: KDM AlphaScreen assay, JARID1C
JARID1C (KDM5C), sequence (P41229 whole entry): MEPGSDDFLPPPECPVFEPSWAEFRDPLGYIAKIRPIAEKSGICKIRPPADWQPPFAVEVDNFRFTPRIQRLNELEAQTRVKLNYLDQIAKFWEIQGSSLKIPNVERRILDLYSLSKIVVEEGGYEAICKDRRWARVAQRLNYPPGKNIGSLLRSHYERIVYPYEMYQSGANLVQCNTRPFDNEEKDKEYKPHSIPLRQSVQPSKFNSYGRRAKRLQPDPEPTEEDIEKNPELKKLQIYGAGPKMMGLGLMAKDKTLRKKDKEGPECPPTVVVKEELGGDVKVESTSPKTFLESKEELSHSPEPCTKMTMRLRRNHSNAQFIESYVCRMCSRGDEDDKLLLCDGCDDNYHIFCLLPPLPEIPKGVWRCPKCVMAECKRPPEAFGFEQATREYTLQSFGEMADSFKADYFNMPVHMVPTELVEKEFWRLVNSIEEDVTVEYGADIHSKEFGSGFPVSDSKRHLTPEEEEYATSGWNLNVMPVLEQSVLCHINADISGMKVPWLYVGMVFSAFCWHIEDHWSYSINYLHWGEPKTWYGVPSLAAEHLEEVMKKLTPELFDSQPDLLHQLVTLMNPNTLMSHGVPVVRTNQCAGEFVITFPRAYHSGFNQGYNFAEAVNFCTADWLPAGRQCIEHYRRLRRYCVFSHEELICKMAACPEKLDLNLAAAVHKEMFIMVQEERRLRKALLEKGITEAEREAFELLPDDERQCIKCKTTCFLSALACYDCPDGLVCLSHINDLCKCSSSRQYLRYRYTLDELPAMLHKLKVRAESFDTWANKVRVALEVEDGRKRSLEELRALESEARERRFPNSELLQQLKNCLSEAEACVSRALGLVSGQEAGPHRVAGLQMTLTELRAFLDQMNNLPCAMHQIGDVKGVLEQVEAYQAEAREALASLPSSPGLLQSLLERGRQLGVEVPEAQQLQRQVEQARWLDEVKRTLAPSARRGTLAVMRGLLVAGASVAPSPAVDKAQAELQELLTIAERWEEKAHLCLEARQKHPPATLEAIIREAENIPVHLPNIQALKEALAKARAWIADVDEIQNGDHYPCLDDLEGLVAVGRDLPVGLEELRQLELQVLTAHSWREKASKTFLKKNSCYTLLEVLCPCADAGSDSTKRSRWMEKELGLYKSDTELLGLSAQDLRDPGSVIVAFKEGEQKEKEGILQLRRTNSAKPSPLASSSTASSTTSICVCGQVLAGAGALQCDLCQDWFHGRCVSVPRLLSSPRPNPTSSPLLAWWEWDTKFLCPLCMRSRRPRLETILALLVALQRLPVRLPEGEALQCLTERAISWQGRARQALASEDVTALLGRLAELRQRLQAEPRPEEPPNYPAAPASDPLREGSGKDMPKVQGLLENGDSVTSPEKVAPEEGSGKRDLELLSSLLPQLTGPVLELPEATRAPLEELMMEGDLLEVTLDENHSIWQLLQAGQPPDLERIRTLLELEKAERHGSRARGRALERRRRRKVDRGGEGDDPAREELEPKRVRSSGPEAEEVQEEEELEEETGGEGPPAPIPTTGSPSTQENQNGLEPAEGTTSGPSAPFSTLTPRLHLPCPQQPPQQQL
Method: (§4) Inhibition assays for PHD2 (AlphaScreen) [9], the KDMs (AlphaScreen) [17], BBOX [18] and FTO [19] were carried out as previously described. […] IC50 values were calculated using nonlinear regression with normalized dose-response fit using GraphPad Prism 5.

[3] = target: T1, JMJD2A (KDM4A) (Homo sapiens, UniProt O75164); assay: KDM AlphaScreen assay, JMJD2A
T1 sequence (O75164 1-1064): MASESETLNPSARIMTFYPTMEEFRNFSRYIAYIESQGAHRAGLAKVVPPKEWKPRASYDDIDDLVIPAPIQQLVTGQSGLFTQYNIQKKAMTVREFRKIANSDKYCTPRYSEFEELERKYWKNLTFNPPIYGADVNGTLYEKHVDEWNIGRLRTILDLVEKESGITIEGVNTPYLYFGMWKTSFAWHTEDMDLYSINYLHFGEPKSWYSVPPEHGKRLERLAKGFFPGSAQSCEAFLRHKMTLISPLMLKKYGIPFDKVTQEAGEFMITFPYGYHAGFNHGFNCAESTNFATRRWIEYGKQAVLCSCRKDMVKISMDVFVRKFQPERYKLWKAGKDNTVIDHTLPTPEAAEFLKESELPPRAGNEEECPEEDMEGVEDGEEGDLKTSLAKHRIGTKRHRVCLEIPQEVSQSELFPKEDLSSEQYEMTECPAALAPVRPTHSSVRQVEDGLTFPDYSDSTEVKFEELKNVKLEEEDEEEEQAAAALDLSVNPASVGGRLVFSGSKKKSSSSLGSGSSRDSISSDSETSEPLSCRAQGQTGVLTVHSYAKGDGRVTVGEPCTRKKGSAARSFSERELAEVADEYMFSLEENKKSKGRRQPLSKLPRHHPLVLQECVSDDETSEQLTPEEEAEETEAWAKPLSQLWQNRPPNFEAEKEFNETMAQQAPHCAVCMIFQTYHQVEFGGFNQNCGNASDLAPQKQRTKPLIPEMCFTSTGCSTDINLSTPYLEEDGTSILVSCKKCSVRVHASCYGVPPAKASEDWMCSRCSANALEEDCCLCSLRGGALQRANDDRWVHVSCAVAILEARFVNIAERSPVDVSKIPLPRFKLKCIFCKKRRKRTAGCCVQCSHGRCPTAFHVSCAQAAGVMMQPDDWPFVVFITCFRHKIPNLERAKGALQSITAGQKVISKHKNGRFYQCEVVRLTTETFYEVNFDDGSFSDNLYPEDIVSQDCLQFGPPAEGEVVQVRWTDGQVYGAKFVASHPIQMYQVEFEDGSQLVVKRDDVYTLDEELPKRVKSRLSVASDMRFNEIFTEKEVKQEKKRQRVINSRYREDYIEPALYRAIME
Method: Inhibition assays for PHD2 (AlphaScreen) [9], the KDMs (AlphaScreen) [17], BBOX [18] and FTO [19] were carried out as previously described. N-Terminally biotinylated 19-residue human HIF1α CODD peptide ([sequence]) used in the PHD2 inhibition assays was from GL Biochem (Shanghai). IC50 values were calculated using nonlinear regression with normalized dose-response fit using GraphPad Prism 5.

[4] = target: JMJD3 (KDM6B) (Homo sapiens, UniProt O15054); assay: KDM AlphaScreen assay, JMJD3
JMJD3 (KDM6B), sequence (O15054 whole entry): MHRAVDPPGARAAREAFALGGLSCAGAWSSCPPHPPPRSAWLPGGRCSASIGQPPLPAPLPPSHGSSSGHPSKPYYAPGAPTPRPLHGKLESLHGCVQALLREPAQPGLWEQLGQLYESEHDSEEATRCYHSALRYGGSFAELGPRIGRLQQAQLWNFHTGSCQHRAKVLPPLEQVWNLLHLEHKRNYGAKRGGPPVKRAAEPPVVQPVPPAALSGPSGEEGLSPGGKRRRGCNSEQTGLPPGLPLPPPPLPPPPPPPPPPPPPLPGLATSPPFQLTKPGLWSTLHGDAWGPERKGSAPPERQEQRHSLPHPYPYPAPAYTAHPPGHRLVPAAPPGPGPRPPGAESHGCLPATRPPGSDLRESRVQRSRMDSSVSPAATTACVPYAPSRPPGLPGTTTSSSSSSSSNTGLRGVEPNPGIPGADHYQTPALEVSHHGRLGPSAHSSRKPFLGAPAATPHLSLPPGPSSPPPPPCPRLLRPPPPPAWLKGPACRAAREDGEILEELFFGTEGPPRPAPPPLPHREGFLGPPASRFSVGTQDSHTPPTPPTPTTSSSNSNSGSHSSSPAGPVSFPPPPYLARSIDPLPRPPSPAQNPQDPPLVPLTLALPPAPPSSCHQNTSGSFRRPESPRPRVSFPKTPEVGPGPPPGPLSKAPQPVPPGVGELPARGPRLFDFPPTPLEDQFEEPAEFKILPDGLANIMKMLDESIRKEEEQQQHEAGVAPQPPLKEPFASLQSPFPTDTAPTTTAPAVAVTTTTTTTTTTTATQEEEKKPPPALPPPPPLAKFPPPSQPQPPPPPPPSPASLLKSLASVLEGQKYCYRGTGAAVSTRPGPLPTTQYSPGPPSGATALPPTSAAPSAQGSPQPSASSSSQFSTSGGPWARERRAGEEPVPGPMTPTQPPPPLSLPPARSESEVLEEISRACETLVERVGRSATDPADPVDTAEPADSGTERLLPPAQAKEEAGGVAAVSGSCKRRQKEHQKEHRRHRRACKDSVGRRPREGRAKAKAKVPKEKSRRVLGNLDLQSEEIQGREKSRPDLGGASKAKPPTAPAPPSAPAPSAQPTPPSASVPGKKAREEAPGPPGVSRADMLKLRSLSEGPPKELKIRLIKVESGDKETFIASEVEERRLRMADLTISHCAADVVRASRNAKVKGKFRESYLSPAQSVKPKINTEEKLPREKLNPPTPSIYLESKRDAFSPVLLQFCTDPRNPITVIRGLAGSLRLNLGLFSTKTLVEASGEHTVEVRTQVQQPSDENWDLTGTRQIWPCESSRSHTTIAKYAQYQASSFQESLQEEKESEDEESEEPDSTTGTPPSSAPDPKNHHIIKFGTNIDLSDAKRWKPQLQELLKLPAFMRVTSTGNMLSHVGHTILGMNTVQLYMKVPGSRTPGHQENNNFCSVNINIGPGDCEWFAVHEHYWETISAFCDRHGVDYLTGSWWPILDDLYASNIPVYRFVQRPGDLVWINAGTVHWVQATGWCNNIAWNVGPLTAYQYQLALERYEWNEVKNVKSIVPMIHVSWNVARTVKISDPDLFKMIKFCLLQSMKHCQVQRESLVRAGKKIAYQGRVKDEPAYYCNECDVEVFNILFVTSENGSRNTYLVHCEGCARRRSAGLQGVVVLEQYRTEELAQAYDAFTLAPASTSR
Method: as §4

[5] = test system: HeLa cells; assay: Immunoblotting of HIF1α induction in HeLa cells; format: cell-based, human; conditions: VHL-competent HeLa cells, immunoblot
Method: as §1, §2, §3

[6] = test system: HIF1α and HIF2α; assay: HIFα induction in tissues of treated mice (immunoblotting); format: in vivo, C57BL/6 mice; conditions: i.p.; for HIF1α and HIF2α induction in liver, kidney and heart / HIF1α and HIF2α induction in the brain: equimolar: IOX2 37.7 mg/kg, IOX4 35 mg/kg, DMOG 75 mg/kg
Method: All animal experiments were performed on male C57BL/6 mice aged 3 months (purchased from Harlan Laboratories, Blackthorn) housed in specific pathogen free conditions with free access to water and standard chow. Mice were injected intraperitonially with the inhibitor (dissolved in Hanks’ buffered saline solution, pH 7.0, 5% DMSO final) or vehicle at the indicated doses for the indicated time as previously described. Tissues from treated mice were harvested and ‘snap frozen’ with liquid nitrogen before being stored at -80°C. For immunoblotting, a portion of the tissues was removed, weighed and homogenised in urea/SDS buffer before being analysed by immunoblotting with HIF1α rabbit polyclonal antibody (10006421, Cayman Chemical, 1:1000) or HIF2α rabbit polyclonal antibody (PM9 [27], 1:1000). For RNA extraction, tissues were ‘snap frozen’ in liquid nitrogen immediately after harvesting, then ground to a fine powder using a cryogenic tissue pulveriser, keeping samples on dry ice at all times and processed for total RNA extraction using the mirVana miRNA isolation kit (AM1560, Life Technologies) according to the manufacturer’s protocol for processing frozen tissues. All animal procedures were compliant with the UK Home Office Animals (Scientific Procedures) Act 1986 and Local Ethical Review Procedures (University of Oxford Medical Sciences Division Ethical Review Committee).
The inhibitors or vehicle controls were injected intraperitonially into wild type C57BL/6 mice and sacrificed after the indicated treatment time before harvesting their tissues to be analysed for HIFα levels by immunoblotting.

Row | Compound | HIF1α prolyl-hydroxylation (HyPro402, HyPro564) [1] | HIF1α asparaginyl-hydroxylation (HyAsn803) ([1]; 50 μM) | IC50 [2] | IC50 [3] | IC50 [4] | HIF1α induction [5] | concentration at which activity (HIF1α induction) observed [5] | HIF1α and HIF2α induction in the liver and brain, dose dependence ([6]; 1 h, 17.5 to 70 mg/kg) | HIF1α and HIF2α induction in liver, kidney and heart ([6]; 1 h) | HIF1α and HIF2α induction in the brain ([6]; 1 h) | HIF1α induction in mouse liver ([6]; IOX2 37.7 mg/kg, IOX3 30 mg/kg (equivalent molar dose), 1 h and […])
1 | CC(C)(C)OC(=O)c1ccc(-n2[nH]cc(-n3ccnn3)c2=O)nc1 [IOX4, t-Butyl 6-(5-oxo-4-(1H-1,2,3-triazol-1-yl)-2,5-dihydro-1H-pyrazol-1-yl)nicotinate] | block prolyl-hydroxylation of HIF1α at both NODD (HyPro402) and CODD (HyPro564) | some apparent inhibition | > 100 µM | > 20 µM | 1.4 µM | induced HIF1α | ≥ 1 µM | Dose-dependent induction | induction of HIF1α and HIF2α | induced | –
2 | O=C(O)CNC(=O)c1c(O)c2ccccc2n(Cc2ccccc2)c1=O [IOX2] | – | – | – | – | – | – | – | – | strongest induction | not | induced in mouse liver after 1 h
3 | O=C(O)c1ccc(-n2[nH]cc(-n3ccnn3)c2=O)nc1 [compound 1, 6-(5-oxo-4-(1H-1,2,3-triazol-1-yl)-2,5-dihydro-1H-pyrazol-1-yl)pyridine-3-carbocylic acid hydrochloride] | block prolyl-hydroxylation of HIF1α at both NODD (HyPro402) and CODD (HyPro564) | – | > 100 µM | > 20 µM | > 20 µM | induced HIF1α | – | – | – | – | –

Source: PMC4492579, “Potent and Selective Triazole-Based Inhibitors of the Hypoxia-Inducible Factor Prolyl-Hydroxylases with Activity in the Murine Brain” (PLoS ONE, 2015)
